Entries after “also recorded” stand apart in the source; their conditions may differ. Marks after values point to notes of the source that are not given here. Where no end group is shown, it is not given here.
Tests used:
[1] = test system: cows; assay: Larger experiment: physiological outcomes for cows treated with PGF im or IVG; assay type: in vivo, cow
Source text: The PGF experiments' ability to show equal luteal regression with im and IVG administration was limited by small N. Data from a larger, more recent experiment supports non-inferiority for IVG compared to im delivery of PGF to induce luteal regression. […] [table]

[2] = test system: lactating Holstein cows; assay: Luteal regression and plasma P4 after IVG (catheter) or im PGF, first study and follow-up; assay type: in vivo, cow
Experimental: Catheters were employed to deliver IVG hormones in lactating Holstein cows. […] In a first study, regression of the corpus luteum (“CL regression”) and plasma P4 concentrations after IVG delivery of 25, 50, or 125 mg PGF (Dinoprost) or of saline 7.5 days after induction of ovulation by Ovsynch injections was evaluated. A positive control group received 25 mg of PGF im (i.e., by intramuscular injection), enabling a comparison of outcomes with im PGF to those with IVG PGF.

[3] = test system: lactating Holstein cows; assay: Proof-of-concept: luteal regression by IVG PGF from single-chamber prototype device; assay type: in vivo, cow; settings: two 50-mg doses of PGF 12 hours apart via prototype (e-Synch PGF); FIG. 13
Experimental: Lactating Holstein cows were randomized to receive two 50-mg doses of PGF 12 hours apart, or an equal amount of saline solution (negative control), or two 25-mg doses of PGF IVG (IVG positive control), or a single 25-mg dose of PGF im (im positive control). There were four cows in each group (except for saline, two cows). […] In short, administration worked as well as standard injections.

[4] = test system: lactating Holstein cows; assay: Luteal regression and plasma P4 after IVG (catheter) or im PGF, first study and follow-up; assay type: in vivo, cow; settings: for CLR % (complete luteal regression, P4 < 1 ng/mL) / P4 (ng/mL): PGF25-2X-IVG: two IVG boluses 25 mg PGF 12 h apart
[5] = test system: lactating Holstein cows; assay: In-vivo validation of automated IVG device: circulating P4 after PGF2α; design: species or system cow
Source text: The objective was to develop and validate an electronically-controlled hormone delivery device for reproductive control of cattle. […] The IVG device comprises an outer 3D-printed plastic housing, fluid reservoirs connected to delivery pumps and tubing, a programmable circuit board, and a retention mechanism. For in-vitro testing, 4 pumps were programmed to release different target volumes (0.1, 0.2, 0.5, 1.0, and 2.0 g) in 4 replicates (n=80). A Bland-Altman plot was constructed to assess the magnitude of disagreement between expected and delivered volumes. Observations fell within acceptable limits of agreement (1.96 SD) >95% of the time, indicating overall good agreement (mean difference=−0.005 g). To assess in-vivo performance of the IVG device, lactating Holstein cows with at least 1 corpus luteum ≥15 mm in diameter were randomly allocated to 1 of 3 treatments: IM-PGF (n=6); two 25 mg intramuscular doses of PGF (Dinoprost) 24 h apart, DEV-PGF (n=6); four 25 mg doses of PGF released automatically by the IVG device every 12 h, and DEV-CTL (n=4); insertion of an empty IVG device (placebo control). Blood samples were collected at 0, 12, 24, 36, 48, and 72 h after treatment. Data was analyzed by ANOVA with repeated measures in SAS. All devices (12/12) remained in situ until removed at 48-h. Progesterone (P4) concentrations from 0 to 72 h were affected by treatment, time, and their interaction.
To assess IVG device performance in vivo, lactating nonpregnant primiparous and multiparous Holstein cows from the dairy unit of the Cornell University Ruminant Center (Harford, N.Y.) were enrolled in an experiment. Cows were housed in freestall barns with concrete flooring, self-locking head gates, and fans and sprinklers in the feedline. Cows were milked thrice daily at approximately 8-h intervals and were fed a TMR once a day with ad libitum access to feed and water.
All cows enrolled received a GnRH treatment (200 μg of gonadorelin acetate given intramuscular, Gonabreed, Parnell Pharmaceuticals, Overland Park, Kans., USA) at 40±3 DIM. Seven days later, transrectal ultrasonography (TUS) of the ovaries was performed using a 7.5-MHz linear probe (Ibex Pro; E. I. Medical Imagining, Loveland, Colo.). Cows with […] corpus luteum (CL) ≥15 mm in diameter (n=16) were randomly allocated to 1 of 3 treatments: IM-PGF (n=6), DEV-PGF (n=6), and DEV-CTRL (n=4). Cows in IM-PGF received 2 treatments of 25 mg of PGF2α (12.5 mg/mL of dinoprost tromethamine; Lutalyse HighCon, Zoetis, New York, N.Y.) 24 h apart as a 2 mL injection in the semimembranosus or semitendinosus muscle. Cows in DEV-PGF received 1 IVG device programmed to automatically release 4 doses of 25 mg of PGF2α at ˜12 h intervals (first dose released at time 0). Cows in the DEV-CTRL treatment received an IVG device without PGF2α to serve as a placebo control for the presence of the device in the vagina. All devices were removed at 48 h after insertion.
Blood samples (˜8 to 9 mL) were collected at time 0 and at 12, 24, 36, 48, and 72 h after treatment by puncture of caudal blood vessels using heparinized evacuated tubes (Vacutainer; BD, Franklin Lakes, N.J.). Samples were centrifuged at 2,000×g for 20 min at 4° C. Plasma aliquots were harvested and stored at −20° C. until assayed for progesterone (P4) in duplicate in 3 RIA assays performed as described in Beam, S. W., et al., “Energy balance and ovarian follicle development prior to the first ovulation postpartum in dairy cows receiving three levels of dietary fat.” Biol. Reprod. 56:133-142 (1997), the disclosure of which is incorporated herein by reference in its entirety. The average intra-assay coefficient of variation (CV) was 13.2% whereas the interassay CV was 17.0%. […]

[6] = test system: lactating Holstein cows; assay: LH response after IVG delivery of GnRH; assay type: in vivo, cow; settings: citric acid as absorption enhancer
Experimental: LH response of lactating Holstein cows after IVG delivery of GnRH was evaluated. Cows received IVG GnRH (Gonadorelin) at a standard dose of 100 μg, or at doses of 500 or 1,000 μg without and with citric acid as an absorption enhancer. A positive control group received 100 μg GnRH im and a negative control group received saline IVG.

[7] = IVG: two 25 mg doses of PGF 12 h apart
[8] = PGF25-IM: single im bolus 25 mg PGF, 60 h after treatment
[9] = PGF25-IM: single im bolus 25 mg PGF, 72 h after treatment
[10] = PGF25-IVG: single IVG bolus 25 mg PGF, 60 h after treatment
[11] = PGF25-IVG: single IVG bolus 25 mg PGF, 72 h after treatment

Molecule: CCCCC[C@H](O)/C=C/[C@@H]1[C@@H](C/C=C\CCCC(=O)O)[C@@H](O)C[C@H]1O [PGF, prostaglandin F2α]
- Estrus after PGF, % (increased physical activity within 72 h of treatment) ([1]; IM: 25 mg of PGF im): 47.0%
- Ovulation, % (in response to GnRH given within 72 h of PGF treatment) ([1]; IM: 25 mg of PGF im): 88.0%
- P4 (ng/mL) at 48 h ([1]; IM: 25 mg of PGF im): 0.4 ± 0.1 ng/mL
- P4 (ng/mL) at 72 h ([1]; IM: 25 mg of PGF im): 0.4 ± 0.1 ng/mL
- CL regression, % (P4 from >1 ng/mL at treatment to <0.5 ng/mL 72 h after) ([1]; IM: 25 mg of PGF im (Dinoprost), n = 169): 81.1%
- Estrus after PGF, % (increased physical activity within 72 h of treatment) [1, 7]: 51.1%
- Ovulation, % (in response to GnRH given within 72 h of PGF treatment) [1, 7]: 84.1%
- P4 (ng/mL) at 48 h [1, 7]: 0.5 ± 0.1 ng/mL
- P4 (ng/mL) at 72 h [1, 7]: 0.6 ± 0.1 ng/mL
- CL regression, % (P4 from >1 ng/mL at treatment to <0.5 ng/mL 72 h after) ([1]; IVG: two 25 mg doses of PGF 12 h apart (Dinoprost), n = 179): 81.0%
- CLR % (complete luteal regression, P4 < 1 ng/mL) [2, 8]: 86^b %
- P4 (ng/mL) [2, 8]: 0.67 ± 0.23^bc ng/mL
- CLR % (complete luteal regression, P4 < 1 ng/mL) [2, 9]: 86^b %
- P4 (ng/mL) [2, 9]: 0.57 ± 0.24^c ng/mL
- CLR % (complete luteal regression, P4 < 1 ng/mL) [2, 10]: 42^b %
- P4 (ng/mL) [2, 10]: 1.74 ± 0.50^b ng/mL
- CLR % (complete luteal regression, P4 < 1 ng/mL) [2, 11]: 42^b %
- P4 (ng/mL) [2, 11]: 2.24 ± 0.64^b ng/mL
- pattern of P4 decline [3]: consistent with CL regression and similar to that of cows in the positive control groups
- CLR % (complete luteal regression, P4 < 1 ng/mL) ([4]; 60 h after treatment): 100^b %
- P4 (ng/mL) ([4]; 60 h after treatment): 0.19 ± 0.04^c ng/mL
- CLR % (complete luteal regression, P4 < 1 ng/mL) ([4]; 72 h after treatment): 100^b %
- P4 (ng/mL) ([4]; 72 h after treatment): 0.21 ± 0.07^c ng/mL
- CL regression, single bolus of IVG PGF compared with im PGF ([4]; single IVG bolus (25, 50 or 125 mg) vs 25 mg im): less effectual than im PGF
- cows that experienced complete CL regression ([4]; two 25 mg boluses of IVG PGF 12 hours apart, follow-up experiment): 100%
- blood/plasma progesterone after treatment compared with im PGF ([4]; two IVG boluses 25 mg PGF 12 h apart (PGF25-2X-IVG) vs PGF25-IM, FIG. 10): indistinguishable from a single dose intramuscular injection of PGF
- luteolytic response compared with single im injection ([4]; two IVG boluses of PGF 12 hours apart, summary of the PGF experiments): comparable luteolytic response to a single intramuscular injection of PGF
- P4, one cow ([5]; DEV-PGF (four 25 mg doses by IVG device every 12 h), 36 h after treatment): 1.20 ng/mL
- P4 concentrations compared with placebo device control ([5]; DEV-PGF and IM-PGF vs DEV-CTRL, from 24 to 72 h): lesser P4 than cows in DEV-CTL; also recorded: lesser concentrations of P4 than cows in the DEV-CTRL treatment
- P4, all other cows ([5]; DEV-PGF and IM-PGF, 36 h after treatment): < 1 ng/mL
- P4, all other cows, end of the sampling period ([5]; DEV-PGF and IM-PGF, 72 h): < 0.5 ng/mL
- luteal regression by PGF delivered automatically by the device ([5]; DEV-PGF, lactating dairy cows): successful induction of luteal regression; also recorded: complete luteal regression
- P4, one cow ([5]; IM-PGF (two 25 mg im doses 24 h apart), 36 h after treatment): 1.21 ng/mL
- P4, one cow, end of the sampling period ([5]; IM-PGF, 72 h): 0.50 ng/mL
- P4 concentrations, DEV-PGF compared with IM-PGF ([5]; entire sampling period, 0 to 72 h): did not differ

Molecule: gonadotropin releasing hormone (QHWSYGLRPG; ends and bridges not checked; UniProt P01148 24-33, looked up) [GnRH, releasing hormone that triggers LH release]
- effect of adding 10% citric acid to the GnRH mixture [6]: necessary for efficacy of IVG GnRH
